Consider eight compounds from PMC9698716, “From Serendipity to Rational Identification of the 5,6,7,8-Tetrahydrobenzo[4,5]thieno[2,3-d]pyrimidin-4(3H)-one Core as a New Chemotype of AKT1 Inhibitors for Acute Myeloid Leukemia” (Pharmaceutics, 2022).

Test [1] deals with IMS-M2. In words: CellTiter Blue cell viability assay. Type of test: cell-based, human. The note with it: IMS-M2, 48 h, read-out: cellular IC50. An excerpt: (§1) The human AML cell lines, OCI-AML3 (carrying the NPM1 gene mutation A and the DNMT3A^R882C mutation), IMS-M2 (carrying the NPM1 gene mutation A), OCI-AML2 (with the wild-type NPM1 and DNMT3A^R635W mutation), and SKM-1 and MOLM-13 (with the wild-type NPM1) were previously reported. The cell lines were purchased from the Deutsche Sammelung von Mikroorganismen und Zellkulturen (DSMZ) (Braunschweig, Germany) cell bank and maintained according to the vendors’ instructions. Briefly, cultured cells were split every 3 days and maintained in an exponential growth phase. The cell lines were tested for mycoplasma using the Universal Mycoplasma Detection Kit (ATCC). The OCI-AML3 were grown in α-MEM supplemented with 20% fetal bovine serum, 100 U/mL penicillin, and 100 μg/mL streptomycin (P/S), and all other cell lines were cultured in RPMI and supplemented with a 10–20% fetal bovine serum and 100 U/mL penicillin and 100 μg/mL streptomycin. The cells were kept at 37 °C in a 5% CO2 incubator. Prior to screening, the appropriate cell concentration for all cell lines was determined. For the cell lines’ treatments, cells were maintained as follows: OCI-AML3 at 0.25 × 10^6/mL, OCI-AML2 and IMS-M2 at 0.35 × 10^6/mL, and SKM-1 and MOLM-13 at 0.5 × 10^6/mL. The compounds were re-suspended at 10 mM stock in DMSO. Further dilutions were performed in phosphate-buffer-saline (PBS) for pharmacological experiments. The cells were exposed to compounds at different concentrations for the indicated time points and sampled as described below. Briefly, the cells (4 × 10^5/mL) were seeded in 384-well plate and treated for 48 h with various concentrations (0.001 μM to 100 μM) of either one of the compounds, T101, T126, and T159, or NSC348884, as a positive control. Each plate included DMSO at 0.1% as a negative control. The metabolic cell activity was measured by using the CellTiter Blue proliferation agent (Roche) as described in the manufacturer’s procedure. Briefly, CellTiter Blue solution (Resazaurin) was added to each well and the plates were incubated at 37 °C with 5% CO2 for 4 h. During the incubation time, the resazurin is reduced to fluorescent resorufin in metabolically and proliferating living cells. The fluorescence intensity was measured using the automated Tecan plate reader (Tecan Group Ltd., Männedorf, Switzerland) at an excitation/emission wavelength of 531/572 nm. The fluorescence readouts were reported as relative fluorescence units (RFU) and read on a luminescence plate reader (Infinite 200 Pro, Tecan, CA, USA). The dose response curves ([…] (IC50)) were obtained by non-linear regression analysis using the GraphPad Prism 5.0 program. The concentration is shown as a logarithmic function. All the experiments were performed at least in triplicate, with technical repetition. The results are expressed as mean ± standard error of the mean (SEM). For the Colony Forming Unit (CFU) assay, 10 × 10^6 CD34+ human hematopoietic progenitors were received from unique healthy donors, upon signed informed consent, and were cultured in SFEM II (Serum-free medium) and P/S at a density of 1 × 10^6/mL with cytokines that are important for cell division and self-renewal: fms-like tyrosine kinase 3 (FLT3)-ligand, FLT3L (100 ng/mL), Stem Cell Factor, SCF (100 ng/mL) and Trombopoietin, and TPO (50 ng/mL) for 48 h before plating them on a Methocult medium.
In general terms: Resazurin is reduced to fluorescent resorufin, in cell work by metabolically active cells.

In test [2] the test system is MOLM-13. In words: CellTiter Blue cell viability assay. Type of test: cell-based, human. As to conditions: MOLM-13, 48 h, read-out: cellular IC50.
Text: as §1

The subject of test [3] is OCI-AML2. In words: CellTiter Blue cell viability assay. Type of test: cell-based, human. As to conditions: OCI-AML2, 48 h, read-out: cellular IC50.
Text: as §1

In test [4] the test system is OCI-AML3. In words: CellTiter Blue cell viability assay. Format: cell-based, human. The note with it: OCI-AML3, 48 h, read-out: cellular IC50.
Text: as §1

Test [5] relates to SKM-1. In words: CellTiter Blue cell viability assay. Format: cell-based, human. The note with it: SKM-1, 48 h, read-out: cellular IC50.
Text: as §1

The target in test [6] is T1, AKT1 (Homo sapiens, UniProt P31749).
T1 construct: purchased Kinase Logistics, Meyn, Germany #Aps 01-101
In words: AKT1 enzymatic inhibition assay. The note with it: for Ligand efficiency (LE = 1.4 pIC50/N): from AKT1 IC50, N = heavy atoms; for Ki: read-out: Ki (AKT1 inhibition constant). Format: biochemical. As for the experimental part:
The studied compounds, including the standard inhibitor Staurosporine (Thermo-Fisher , Madrid, Spain, Invitrogen BP2541), were incubated with 3 nM AKT1 (#Aps 01-101; Kinase Logistics, Meyn, Germany) and 1.5 μM Profiler Pro peptide 6 (#760350; Perkin Elmer, Tres Cantos, Madrid, Spain) in the presence of different concentrations of Adenosine 5′triphosphate disodium salt, ATP (#A2383; Sigma Aldrich, Madrid, Spain) in a 384-well Microplate (#781076; Greiner, San Sebastián de los Reyes, Madrid, Spain). The reaction rate was calculated from kinetic measurements carried out measured in a Caliper EzReader LabChip 3000 (Caliper, Hopkinton, MA, USA) reader with samples taken each 10 min for a total time of 60 min. The percentage of substrate conversion rate was plotted versus the ATP concentration. The data was analyzed by non-linear fitting with GraphPad Prism by employing the Michaelis–Menten equation. The buffer assay used in the inhibition hAKT1 assay is: Hepes 100 mM, DMSO 4%, Brij 0.003%, Tween 20 0.004%, MgCl2 10 mM, with a pH = 7.5.
The Ki values were calculated by employing the GraphPad Prism equations.

In test [7] the test system is p38 MAPK. In words: activity against p38 MAPK (originally desired target). Type of test: biochemical.
The test system of test [8] is AKT1. On the set-up: method as in PMID 33995085. The note with it: ref [51]; cited from earlier work.
For test [9], the system named is AKT3. On the set-up: method as in PMID 33995085. As to conditions: ref [51]; cited from earlier work.
Setting [10] is: 10 μM compound, read-out: %inh (percentage of inhibition of AKT1 activity).

The structures appear in SMILES notation. Read-outs that look alike come from different tables or passages of the source.

T1 sequence (P31749 whole entry): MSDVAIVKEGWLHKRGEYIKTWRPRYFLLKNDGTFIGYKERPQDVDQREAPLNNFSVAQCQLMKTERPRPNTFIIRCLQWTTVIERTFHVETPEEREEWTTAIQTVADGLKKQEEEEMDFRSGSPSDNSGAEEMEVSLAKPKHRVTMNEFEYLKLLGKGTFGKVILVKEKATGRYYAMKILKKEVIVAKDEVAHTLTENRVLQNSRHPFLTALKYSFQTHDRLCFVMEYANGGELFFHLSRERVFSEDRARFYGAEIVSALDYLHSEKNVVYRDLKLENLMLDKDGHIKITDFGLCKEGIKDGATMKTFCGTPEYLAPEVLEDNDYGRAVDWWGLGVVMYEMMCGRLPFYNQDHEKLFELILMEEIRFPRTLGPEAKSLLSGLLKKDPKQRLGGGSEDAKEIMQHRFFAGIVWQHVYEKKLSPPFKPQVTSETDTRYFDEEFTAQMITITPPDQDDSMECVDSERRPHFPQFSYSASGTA

One may read the IC50 as the midpoint of a concentration-inhibition curve. Take `Cc1ccc2nc(CN(CCN(Cc3nc4ccc(C)cc4[nH]3)Cc3nc4ccc(C)cc4[nH]3)Cc3nc4ccc(C)cc4[nH]3)[nH]c2c1` [NSC348884, reference compound]: the IC50 is 7.6 µM in test [1]; 3.4 µM in test [2]; 5.6 µM in test [3]; 6.6 µM in [4]; 2.1 µM in [5].
By inhibition is commonly meant the relative decrease from the control value, in per cent. Broadly, the Ki is the equilibrium dissociation constant of an inhibitor or competing ligand from its target. In the case of `Cc1cc(-c2ccccc2)nc2nc(NC(=O)c3ccc(O)c(O)c3)nn12` [T101], the IC50 was 1.62 ± 0.15 µM in test [6]; > 30 µM in test [1] (Homo sapiens); > 30 µM in test [2] (Homo sapiens); > 30 µM in [3] (Homo sapiens); > 30 µM in test [4] (Homo sapiens, OCI-AML-3); > 30 µM in test [5] (Homo sapiens). Further, in test [6] (setting [10]), the inhibition at 10 µM was determined as 95%. Moreover, the “Ligand efficiency (LE = 1.4 pIC50/N)” value in test [6] amounted to 0.29 kcal mol^−1 N^−1. In addition, the Ki in test [6] stood at 0.24 µM.
Turning to `O=c1[nH]c(-c2ccc(O)c(O)c2)nc2sc3c(c12)CCCCC3` [T124], in test [6], the IC50 amounted to 30.9 µM, the “potency against AKT1 (in words)” value is “moderately active” and the “Ligand efficiency (LE = 1.4 pIC50/N)” value came out at 0.27 kcal mol^−1 N^−1. Moreover, in test [6] (10 μM compound, 10 µM), the “%inh (percentage of inhibition of AKT1 activity)” value was 60%. For the same compound, in [6] (setting [10]), the inhibition at 10 µM is > 60%.
`O=c1[nH]c(-c2ccc(O)c(O)c2)nc2sc3c(c12)CCC3` [T128]: in test [6], half-maximal inhibition (IC50) was put at 26.6 ± 4.8 µM, the “potency against AKT1 (in words)” value was “moderately active” and the “Ligand efficiency (LE = 1.4 pIC50/N)” value is on record as 0.30 kcal mol^−1 N^−1. For the same compound, the inhibition at 10 µM in test [6] (setting [10]) was 78%.
As to `NC(=O)c1c(NC(=O)c2ccc(O)c(O)c2)sc2c1CCCCC2` [T159], the IC50 in [6] was 2.12 ± 0.26 µM; in [1] (Homo sapiens), > 30 µM; in test [2] (Homo sapiens), > 30 µM; in [3] (Homo sapiens), > 30 µM; in test [4] (Homo sapiens, OCI-AML-3) it was > 30 µM; in [5] (Homo sapiens), > 30 µM. Moreover, the inhibition at 10 µM in test [6] (setting [10]) came out at 94%. In addition, in [6], the Ki worked out at 1.91 µM.
With `NC(=O)c1c(NC(=O)c2ccc(F)cc2F)sc2c1CCCCC2` [T187, 2-(2,4-Difluorobenzamido)-5,6,7,8-tetrahydro-4H-cyclohepta[b]thiophene-3-carboxamide], in test [6], inhibition was half-maximal at 11.4 ± 2.8 µM (IC50), the “Ligand efficiency (LE = 1.4 pIC50/N)” value is 0.28 kcal mol^−1 N^−1 and the Ki came out at 4.19 ± 1.36 µM. Further, the inhibition at 10 µM in test [6] (setting [10]) is 56%. Besides, the inhibition at 50 µM in [6] (50 μM compound solution (footnote b of Table S2), read-out: %inh (percentage of inhibition of AKT1 activity)) turned out to be 56%. In [7], the “activity against p38 MAPK” value is “inactive”.
Regarding `NC1(C(=O)N[C@@H](CCO)c2ccc(Cl)cc2)CCN(c2ncnc3[nH]ccc23)CC1` [capivasertib, 4-amino-N-[(1S)-1-(4-chlorophenyl)-3-hydroxypropyl]-1-(7H-pyrrolo[2,3-d]pyrimidin-4-yl)piperidine-4-carboxamide], the IC50 in test [8] was […].
Take `CC(C)NC[C@@H](C(=O)N1CCN(c2ncnc3c2[C@H](C)C[C@H]3O)CC1)c1ccc(Cl)cc1` [ipatasertib]: the results for the IC50 in test [8] and in test [9] were […] and […], respectively.
